Where two headings read alike, the source gives them in different places.
Columns and labels:
Format in all cases: binding
LIMK2 = LIMK2 (Homo sapiens, UniProt P53671); test: Differential scanning fluorimetry assay for LIMK1/2; settings: LIMK2, 10 μM compound
Description: The assay was performed according to a previously established protocol. […] The compounds to be tested were added to a final concentration of 10 μM. […] Data were analyzed with MxPro software.

EGFR(L858R,T790M) = EGFR(L858R,T790M) (Homo sapiens, UniProt P00533, L858R/T790M); test: biochemical; settings: compound concentration 100 nM; Entrez EGFR; read-out: Percent Control
PIK3CA(E545A) = PIK3CA(E545A) (Homo sapiens, UniProt P42336, E545A); test: biochemical; settings: compound concentration 100 nM; Entrez PIK3CA; read-out: Percent Control
[1] = biological target: ABL1(M351T)-phosphorylated (Homo sapiens, UniProt P00519, M351T); test: biochemical; settings: read-out: Percent Control
[2] = biological target: EGFR(L747-E749del, A750P) (Homo sapiens, UniProt P00533, A750P/DEL747-749); test: biochemical; settings: compound concentration 100 nM; Entrez EGFR; read-out: Percent Control
PIK3CA(I800L) = PIK3CA(I800L) (Homo sapiens, UniProt P42336, I800L); test: biochemical; settings: read-out: Percent Control
[3] = biological target: ABL1(Y253F)-phosphorylated (Homo sapiens, UniProt P00519, Y253F); test: biochemical; settings: read-out: Percent Control
PIK3CA(E542K) = PIK3CA(E542K) (Homo sapiens, UniProt P42336, E542K); test: biochemical; settings: read-out: Percent Control
FLT3(ITD,F691L) = settings: compound concentration 100 nM; Entrez FLT3
BTK2 = BTK2 (Homo sapiens, UniProt Q06187); test: scanMAX KINOMEscan (Eurofins)
FGFR3(G697C) = FGFR3(G697C) (Homo sapiens, UniProt P22607, G697C); test: biochemical; settings: read-out: Percent Control
RET(V804M) = RET(V804M) (Homo sapiens, UniProt P07949, V804M); test: biochemical; settings: 1000 nM, read-out: Percent Control
[4] = biological target: ABL1(Q252H)-nonphosphorylated (Homo sapiens, UniProt P00519, Q252H); test: biochemical; settings: read-out: Percent Control
PIK3CA(Q546K) = PIK3CA(Q546K) (Homo sapiens, UniProt P42336, Q546K); test: biochemical; settings: read-out: Percent Control
[5] = biological target: ABL1(H396P)-nonphosphorylated (Homo sapiens, UniProt P00519, H396P); test: biochemical; settings: read-out: Percent Control
FLT3(D835Y) = FLT3(D835Y) (Homo sapiens, UniProt P36888, D835Y); test: biochemical; settings: 1000 nM, read-out: Percent Control
[6] = biological target: ABL1(E255K)-phosphorylated (Homo sapiens, UniProt P00519, E255K); test: biochemical; settings: read-out: Percent Control
EGFR(T790M) = EGFR(T790M) (Homo sapiens, UniProt P00533, T790M); test: biochemical; settings: 1000 nM, read-out: Percent Control
KIT(D816V) = KIT(D816V) (Homo sapiens, UniProt P10721, D816V); test: biochemical; settings: compound concentration 100 nM; Entrez KIT; read-out: Percent Control
EGFR(G719C) = EGFR(G719C) (Homo sapiens, UniProt P00533, G719C); test: biochemical; settings: 1000 nM, read-out: Percent Control
RIPK1 = biological target: T1, RIPK1 (Homo sapiens, UniProt Q13546); test: scanMAX KINOMEscan (Eurofins)
T1 construct: full-length LIMK1/2, RIPK1, BTK, and LRRK2 cloned in a frame in a NanoLuc-vector (Promega); host or cells: HEK293T
T1 sequence (Q13546 1-671): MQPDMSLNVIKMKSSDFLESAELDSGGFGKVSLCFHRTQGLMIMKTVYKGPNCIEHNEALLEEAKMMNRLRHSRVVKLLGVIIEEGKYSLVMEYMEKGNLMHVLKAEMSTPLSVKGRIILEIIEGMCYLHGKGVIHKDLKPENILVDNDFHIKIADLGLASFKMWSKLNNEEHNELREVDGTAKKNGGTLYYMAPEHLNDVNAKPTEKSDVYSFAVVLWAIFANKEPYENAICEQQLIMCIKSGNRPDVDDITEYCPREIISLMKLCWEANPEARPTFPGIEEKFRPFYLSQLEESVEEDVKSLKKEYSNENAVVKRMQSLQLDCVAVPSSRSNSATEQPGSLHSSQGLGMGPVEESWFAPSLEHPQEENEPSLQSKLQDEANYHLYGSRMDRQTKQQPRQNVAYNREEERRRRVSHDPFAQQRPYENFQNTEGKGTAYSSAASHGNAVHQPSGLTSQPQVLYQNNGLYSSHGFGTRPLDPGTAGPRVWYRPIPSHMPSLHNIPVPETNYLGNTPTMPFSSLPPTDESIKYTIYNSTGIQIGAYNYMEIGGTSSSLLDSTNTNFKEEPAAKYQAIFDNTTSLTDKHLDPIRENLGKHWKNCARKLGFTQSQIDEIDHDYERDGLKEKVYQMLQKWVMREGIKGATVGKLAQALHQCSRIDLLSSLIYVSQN

BRPF1A = BRPF1A (Homo sapiens, UniProt P55201); test: DSF selectivity screening; settings: 10 μM compound
KIT(L576P) = KIT(L576P) (Homo sapiens, UniProt P10721, L576P); test: biochemical; settings: 1000 nM, read-out: Percent Control
EGFR(G719S) = EGFR(G719S) (Homo sapiens, UniProt P00533, G719S); test: biochemical; settings: 1000 nM, read-out: Percent Control
ALK(L1196M) = ALK(L1196M) (Homo sapiens, UniProt Q9UM73, L1196M); test: biochemical; settings: 1000 nM, read-out: Percent Control

Chain of BTK2 (Q06187 whole entry): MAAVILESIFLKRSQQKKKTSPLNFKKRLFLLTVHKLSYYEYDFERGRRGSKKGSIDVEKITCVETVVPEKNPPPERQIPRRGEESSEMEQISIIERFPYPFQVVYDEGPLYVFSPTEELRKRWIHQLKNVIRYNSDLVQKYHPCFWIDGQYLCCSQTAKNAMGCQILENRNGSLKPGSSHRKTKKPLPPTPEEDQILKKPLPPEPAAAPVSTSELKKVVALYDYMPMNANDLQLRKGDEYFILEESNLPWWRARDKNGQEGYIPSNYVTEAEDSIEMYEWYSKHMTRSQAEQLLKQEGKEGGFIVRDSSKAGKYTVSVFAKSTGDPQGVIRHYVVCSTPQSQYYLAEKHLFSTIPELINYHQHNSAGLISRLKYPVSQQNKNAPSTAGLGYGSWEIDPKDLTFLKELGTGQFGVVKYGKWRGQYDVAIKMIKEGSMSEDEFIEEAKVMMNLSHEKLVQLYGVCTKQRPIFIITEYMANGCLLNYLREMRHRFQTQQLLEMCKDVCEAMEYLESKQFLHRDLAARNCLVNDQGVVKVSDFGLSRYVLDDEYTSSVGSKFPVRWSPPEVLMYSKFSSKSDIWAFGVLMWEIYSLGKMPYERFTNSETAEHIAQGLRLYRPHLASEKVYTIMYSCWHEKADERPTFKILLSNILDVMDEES
Chain of PIK3CA(E542K) (P42336 whole entry E542K): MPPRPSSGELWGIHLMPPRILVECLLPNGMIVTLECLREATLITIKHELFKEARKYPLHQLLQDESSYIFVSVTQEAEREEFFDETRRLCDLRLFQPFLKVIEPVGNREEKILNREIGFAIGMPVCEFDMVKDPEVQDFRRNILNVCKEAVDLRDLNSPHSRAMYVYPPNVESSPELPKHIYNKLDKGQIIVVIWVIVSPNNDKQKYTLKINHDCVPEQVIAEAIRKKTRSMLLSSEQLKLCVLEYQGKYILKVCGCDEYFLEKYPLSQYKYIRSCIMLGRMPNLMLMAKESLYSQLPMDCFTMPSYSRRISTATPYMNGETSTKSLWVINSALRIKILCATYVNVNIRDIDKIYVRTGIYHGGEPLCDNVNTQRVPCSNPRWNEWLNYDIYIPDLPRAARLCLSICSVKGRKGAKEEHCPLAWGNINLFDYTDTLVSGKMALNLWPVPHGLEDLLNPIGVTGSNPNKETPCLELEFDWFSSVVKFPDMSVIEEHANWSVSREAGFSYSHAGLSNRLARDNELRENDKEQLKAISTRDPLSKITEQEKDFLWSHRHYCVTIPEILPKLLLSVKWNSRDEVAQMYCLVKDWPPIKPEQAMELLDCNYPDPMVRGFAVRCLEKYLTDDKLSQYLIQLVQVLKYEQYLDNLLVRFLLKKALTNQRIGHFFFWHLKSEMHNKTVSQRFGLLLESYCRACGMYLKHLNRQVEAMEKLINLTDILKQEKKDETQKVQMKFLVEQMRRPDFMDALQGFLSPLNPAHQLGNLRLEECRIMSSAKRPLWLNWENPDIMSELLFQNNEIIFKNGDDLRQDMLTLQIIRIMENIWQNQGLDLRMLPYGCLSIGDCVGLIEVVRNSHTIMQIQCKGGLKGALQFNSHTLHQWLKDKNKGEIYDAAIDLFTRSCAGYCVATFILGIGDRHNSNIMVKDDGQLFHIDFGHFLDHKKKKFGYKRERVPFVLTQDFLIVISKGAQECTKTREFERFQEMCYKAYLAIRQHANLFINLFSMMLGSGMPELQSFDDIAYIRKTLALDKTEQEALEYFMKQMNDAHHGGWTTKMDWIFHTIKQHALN
Chain of EGFR(T790M) (P00533 25-1210 T790M): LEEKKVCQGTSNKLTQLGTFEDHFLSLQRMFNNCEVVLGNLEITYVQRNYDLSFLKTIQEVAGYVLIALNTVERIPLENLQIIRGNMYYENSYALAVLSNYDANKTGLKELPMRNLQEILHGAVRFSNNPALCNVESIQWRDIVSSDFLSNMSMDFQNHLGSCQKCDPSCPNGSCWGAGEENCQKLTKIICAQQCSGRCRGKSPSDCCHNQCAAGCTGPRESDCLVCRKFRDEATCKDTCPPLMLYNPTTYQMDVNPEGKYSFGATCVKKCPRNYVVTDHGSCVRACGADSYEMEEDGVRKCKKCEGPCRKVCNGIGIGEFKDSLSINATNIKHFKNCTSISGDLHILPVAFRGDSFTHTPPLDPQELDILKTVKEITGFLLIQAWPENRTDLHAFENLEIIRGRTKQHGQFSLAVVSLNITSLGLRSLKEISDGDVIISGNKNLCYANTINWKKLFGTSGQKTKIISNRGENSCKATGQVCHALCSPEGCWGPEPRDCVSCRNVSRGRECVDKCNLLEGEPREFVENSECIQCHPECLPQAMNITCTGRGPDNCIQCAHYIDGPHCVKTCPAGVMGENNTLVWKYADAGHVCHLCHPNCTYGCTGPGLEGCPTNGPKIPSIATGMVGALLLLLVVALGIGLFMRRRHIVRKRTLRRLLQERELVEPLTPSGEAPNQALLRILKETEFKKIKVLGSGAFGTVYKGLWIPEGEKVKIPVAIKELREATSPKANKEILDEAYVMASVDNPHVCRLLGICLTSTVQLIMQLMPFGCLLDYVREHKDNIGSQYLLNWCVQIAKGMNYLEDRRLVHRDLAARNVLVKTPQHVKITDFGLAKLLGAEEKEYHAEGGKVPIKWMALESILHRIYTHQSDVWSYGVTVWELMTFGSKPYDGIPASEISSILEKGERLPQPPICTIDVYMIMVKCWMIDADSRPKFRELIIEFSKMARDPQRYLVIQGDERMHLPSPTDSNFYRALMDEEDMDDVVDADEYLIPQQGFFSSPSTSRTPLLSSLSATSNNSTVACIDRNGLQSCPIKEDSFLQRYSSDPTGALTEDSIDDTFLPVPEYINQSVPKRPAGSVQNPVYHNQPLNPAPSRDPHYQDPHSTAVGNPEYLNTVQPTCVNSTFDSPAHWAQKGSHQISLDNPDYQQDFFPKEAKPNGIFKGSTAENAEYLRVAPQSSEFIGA
Chain of EGFR(G719C) (P00533 25-1210 G719C): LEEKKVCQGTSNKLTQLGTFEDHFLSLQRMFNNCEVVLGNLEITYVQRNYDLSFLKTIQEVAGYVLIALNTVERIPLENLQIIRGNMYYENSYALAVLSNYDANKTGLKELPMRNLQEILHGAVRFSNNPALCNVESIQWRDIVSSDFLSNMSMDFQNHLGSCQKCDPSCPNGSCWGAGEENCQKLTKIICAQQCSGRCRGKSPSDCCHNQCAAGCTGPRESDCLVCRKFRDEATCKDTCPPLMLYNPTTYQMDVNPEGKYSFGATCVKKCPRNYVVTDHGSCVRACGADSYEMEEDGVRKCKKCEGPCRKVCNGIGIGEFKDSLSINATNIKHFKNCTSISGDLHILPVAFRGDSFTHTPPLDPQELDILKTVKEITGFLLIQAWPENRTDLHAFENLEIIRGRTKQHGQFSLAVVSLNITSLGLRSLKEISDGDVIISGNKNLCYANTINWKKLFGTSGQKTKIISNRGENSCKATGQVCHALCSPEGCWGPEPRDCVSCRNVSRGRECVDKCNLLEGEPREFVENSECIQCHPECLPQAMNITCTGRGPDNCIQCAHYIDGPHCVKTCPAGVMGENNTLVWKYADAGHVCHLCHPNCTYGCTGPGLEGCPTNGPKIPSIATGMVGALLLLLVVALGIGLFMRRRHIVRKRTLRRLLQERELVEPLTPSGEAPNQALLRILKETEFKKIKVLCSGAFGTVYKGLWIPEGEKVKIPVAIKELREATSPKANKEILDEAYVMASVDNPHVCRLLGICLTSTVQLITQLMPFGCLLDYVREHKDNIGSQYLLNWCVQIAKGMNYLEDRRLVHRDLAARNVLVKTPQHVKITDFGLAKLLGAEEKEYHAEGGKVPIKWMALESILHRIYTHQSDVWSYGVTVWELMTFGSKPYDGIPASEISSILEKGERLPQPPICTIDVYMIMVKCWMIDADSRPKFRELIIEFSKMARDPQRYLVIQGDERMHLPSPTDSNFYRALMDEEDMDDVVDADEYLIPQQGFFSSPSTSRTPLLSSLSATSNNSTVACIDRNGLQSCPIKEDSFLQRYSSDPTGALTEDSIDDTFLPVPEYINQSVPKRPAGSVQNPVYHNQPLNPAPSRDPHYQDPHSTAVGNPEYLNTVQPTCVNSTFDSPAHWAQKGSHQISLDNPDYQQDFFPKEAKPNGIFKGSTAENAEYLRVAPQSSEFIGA
Chain of EGFR(L747-E749del, A750P) (P00533 other isoform, or with tags, fused parts or gaps DEL747-749/A750P): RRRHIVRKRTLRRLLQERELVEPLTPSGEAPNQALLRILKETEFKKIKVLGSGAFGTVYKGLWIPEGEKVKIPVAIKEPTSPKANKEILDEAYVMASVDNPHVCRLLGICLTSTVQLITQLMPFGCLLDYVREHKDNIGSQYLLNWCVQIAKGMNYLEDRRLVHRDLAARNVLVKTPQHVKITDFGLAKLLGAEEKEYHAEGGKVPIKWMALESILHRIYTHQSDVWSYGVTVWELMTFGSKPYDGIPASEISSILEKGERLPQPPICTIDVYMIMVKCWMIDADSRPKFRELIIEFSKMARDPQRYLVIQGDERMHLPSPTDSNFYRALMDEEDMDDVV
Chain of PIK3CA(Q546K) (P42336 whole entry Q546K): as the sequence (P42336 whole entry E542K) above, with K542E, Q546K counted along it
Chain of PIK3CA(E545A) (P42336 whole entry E545A): as the sequence (P42336 whole entry E542K) above, with K542E, E545A counted along it
Chain of PIK3CA(I800L) (P42336 whole entry I800L): as the sequence (P42336 whole entry E542K) above, with K542E, I800L counted along it
Chain of LIMK2 (P53671 330-632): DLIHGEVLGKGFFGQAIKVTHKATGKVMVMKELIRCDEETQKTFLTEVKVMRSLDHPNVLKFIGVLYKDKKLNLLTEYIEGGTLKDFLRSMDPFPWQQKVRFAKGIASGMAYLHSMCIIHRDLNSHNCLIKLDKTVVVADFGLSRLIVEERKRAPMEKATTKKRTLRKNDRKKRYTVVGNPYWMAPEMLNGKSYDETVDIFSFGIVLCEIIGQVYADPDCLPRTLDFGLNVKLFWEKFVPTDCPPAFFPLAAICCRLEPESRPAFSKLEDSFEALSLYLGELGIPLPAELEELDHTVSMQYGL

CN1C(=O)[C@@H](N2CCc3c(C(N)=O)nn(Cc4ccccc4)c3C2=O)COc2ccccc21 [Compound 11]
ΔTM (stabilization in the DSF assay) (LIMK2): inactive

CN1C(=O)[C@@H](N2CCc3c(nn(Cc4ccccc4)c3C(N)=O)C2=O)COc2cc(Cl)ccc21 [Compound 10, (S)-2-benzyl-6-(8-chloro-5-methyl-4-oxo-2,3,4,5-tetrahydrobenzo[b][1,4]oxazepin-3-yl)-7-oxo-4,5,6,7-tetrahydro-2H-pyrazolo[3,4-c]pyridine-3-carboxamide]
remaining activity at 0.1 µM (EGFR(L858R,T790M)): 100% | remaining activity at 0.1 µM (PIK3CA(E545A)): 92% | remaining activity at 1 µM [1]: 100% | remaining activity at 0.1 µM [2]: 100% | remaining activity at 1 µM (PIK3CA(I800L)): 89% | remaining activity at 1 µM [3]: 85% | remaining activity at 1 µM (PIK3CA(E542K)): 94% | Percent Control (FLT3(ITD,F691L)): 100 | remaining binding at 1 µM (BTK2; BTK2, 1 μM, read-out: POC (Top Hits @ 1 μM)): 55% | remaining binding at 0.1 µM (BTK2; BTK (Entrez BTK), 100 nM, read-out: Percent Control): 62% | remaining binding at 1 µM (BTK2; BTK, 1000 nM, read-out: Percent Control): 55% | remaining activity at 1 µM (FGFR3(G697C)): 100% | remaining activity at 1 µM (RET(V804M)): 93% | remaining activity at 1 µM [4]: 79% | remaining activity at 1 µM (PIK3CA(Q546K)): 97% | remaining activity at 1 µM [5]: 66% | remaining activity at 1 µM (FLT3(D835Y)): 94% | remaining activity at 1 µM [6]: 94% | remaining activity at 1 µM (EGFR(T790M)): 100% | remaining activity at 0.1 µM (KIT(D816V)): 100% | remaining activity at 1 µM (EGFR(G719C)): 86% | remaining binding at 0.1 µM (RIPK1; RIPK1 (Entrez RIPK1), 100 nM, read-out: Percent Control): 55% | remaining binding at 1 µM (RIPK1; RIPK1, 1 μM, read-out: POC (Top Hits @ 1 μM)): 23% | remaining binding at 1 µM (RIPK1; RIPK1, 1000 nM, read-out: Percent Control): 23% | ΔTm at 10 µM (BRPF1A): -0.8 °C | remaining activity at 1 µM (KIT(L576P)): 92% | remaining activity at 1 µM (EGFR(G719S)): 92% | remaining activity at 1 µM (ALK(L1196M)): 90%

Reference: PMC12090182, “Repurposing of the RIPK1-Selective Benzo[1,4]oxazepin-4-one Scaffold for the Development of a Type III LIMK1/2 Inhibitor” (ACS Chemical Biology, 2025)
